Source: patent US11229618B2 (Amarin Pharmaceuticals Ireland Limited, priority 2012, dated 2022)

Legend:
[1] = MARINE: RBC fatty acid concentrations, ratios and class proportions (GC/FID); assay type: in vivo, human
Protocol: A multi-center, placebo-controlled randomized, double-blind, 12-week study with an open-label extension is performed to evaluate the efficacy and safety of AMR101 in patients with fasting triglyceride levels≥500 mg/dL. The primary objective of the study is to determine the efficacy of AMR101 2 g daily and 4 g daily, compared to placebo, in lowering fasting TG levels in patients with fasting TG levels≥500 mg/dL and ≤1500 mg/dL (≥5.65 mmol/L and ≤16.94 mmol/L).
Eligible patients will be randomly assigned at Visit 4 (Week 0) to receive orally AMR101 2 g daily, AMR101 4 g daily, or placebo for the 12-week double-blind treatment period. AMR101 is provided in 1 g liquid-filled, oblong, gelatin capsules. The matching placebo capsule is filled with light liquid paraffin and contains 0 g of AMR101. During the double-blind treatment period, patients will take 2 capsules (AMR101 or matching placebo) in the morning and 2 in the evening for a total of 4 capsules per day. Patients in the AMR101 2 g/day treatment group will receive 1 AMR101 1 g capsule and 1 matching placebo capsule in the morning and in the evening. Patients in the AMR101 4 g/day treatment group will receive 2 AMR101 1 g capsules in the morning and evening.
Lipids were extracted from plasma and RBC suspensions and converted into fatty acid methyl esters for analysis using a standard validated gas chromatography/flame ionization detection method. Fatty acid parameters were compared between EPA treatment groups and placebo using an ANCOVA model with treatment, gender, type of statin therapy, and presence of diabetes as factors, and the baseline parameter value as a covariate. LSMs, SEs, and 2-tailed 95% confidence intervals for each treatment group and for each comparison were determined.
The monounsaturated fatty acid group included myristoleic, palmitoleic, cis-vaccenic, oleic, gondoic/gadoleic, erucic and nervonic acids. The saturated fatty acid group included myristic, palmitic, stearic, arachidic, behenic and lignoceric acids. The “total omega-3” group included α-linolenic, stearidonic, eicosatrienoic, ω-3 arachidonic, eicosapentaenoic, ω-3 docosapentaenoic and docosahecaenoic acids. The “total omega-6” group included linoleic, γ-linolenic, eicosadienoic, dihomo-γ-linolenic, ω-6 arachidonic, adrenic, and ω-6 docosapentaenoic acids. The “total fatty acid” group represented the sum of the monounsaturated, saturated, total omega-3 and total omega-6 groups.

[2] = Phase 1 multidose pharmacokinetic study: unesterified EPA in plasma (LC-MS/MS); assay type: in vivo, human; settings: for Unesterified EPA in plasma, CL/F: day 28
Protocol: A study to characterize the pharmacokinetics of ethyl eicosapentaenoate in plasma and red blood cells after multiple-dose administration of IPE at 2 g per day and 4 g per day was performed in healthy adult male and female humans.
The study was a phase 1, open-label, randomized, multidose study in healthy, nonsmoking men and women aged>18 and ≤55 years with a body mass index (BMI)>18 and ≤30 kg/m′. Exclusion criteria included use within 6 weeks prior to randomization through study end of any lipid-altering medications or supplements, including statins, niacin at levels of greater than 200 mg/day, fibrates, ezetimibe, bile acid sequestrants, omega-3 fatty acid medications, and supplements or foods enriched with omega-3 fatty acids (no more than 2 servings of fish per week were permitted).
Following a 14-day screening period, subjects entered a 28-day treatment period and were randomized to one of four IPE dose regimen treatment groups as shown in FIG. 1. Group 1 received IPE 2 g daily (1000-mg capsules; twice-daily [BID] regimen); Group 2 received IPE 4 g daily (1000-mg capsules; BID regimen); Group 3 received IPE 2 g daily (1000-mg capsules; once-daily [QD] regimen); and Group 4 received IPE 2 g daily (500-mg capsules; BID regimen). Treatment was administered orally, with or following a meal in the morning and evening for BID regimens, or in the morning only for the QD regimen. Subjects then entered an 18-day post-treatment pharmacokinetic sampling period.
Fasting EPA concentrations were measured with a validated liquid chromatography with tandem mass spectrometry (LC-MS/MS) method in plasma and RBCs prior to the morning dose (days 1, 14, 26, 28) and at serial time points (1, 3, 5, 6, 8, 10, 12, 24, 48, 72, 120, 192, 312, and 432 hours) after the morning dose on day 28. After the last dose on day 28, EPA concentrations were followed for 18 days to estimate the expected long half-life of EPA. Total plasma EPA included all EPA forms (unesterified EPA and that incorporated in phospholipids, triacylglycerols, and cholesteryl esters). In RBCs, EPA was measured in the cell membrane, where EPA is mainly incorporated in phospholipids.
For total EPA in plasma and RBCs, lipids were isolated by acid/methanol/chloroform extraction followed by centrifugation and purified by isohexane and solid-phase extraction after confirmed complete lipid hydrolysis and transmethylation (acid/methanol, 50° C. overnight). For unesterified EPA in plasma, 25 μL of an inhibitor solution (0.5 g sodium fluoride, 1.0 g L-ascorbic acid, and 0.25 g 5-methylisoxazole-3-carboxylic acid per 10 mL water) was included per 1 mL plasma sample to prevent degradation and lipids were isolated by centrifugation after methanol/chloroform extraction (without hydrolysis or methylation) and further purified by protein precipitation and solid-phase extraction. Quantitation utilized linolenic acid as an internal standard and EPA as the standard for the calibration curve; for total plasma EPA, RBC EPA, and unesterified EPA, the lower limits of quantitation were 10 μg/mL, 5 μg/mL, and 50 ng/mL, respectively. EPA concentrations were measured at Charles River Laboratories Ltd (Elphinstone Research Center, Tranent, Edinburgh, Scotland, UK).
Unless otherwise specified, all reported parameters are based on baseline-subtracted concentrations (baseline is due to EPA derived from dietary sources).

[3] = red blood cell, IPE 4 g/day vs placebo, week 12, P <0.0001
[4] = about 2 g orally twice per day, human

CC/C=C\C/C=C\C/C=C\C/C=C\C/C=C\CCCC(=O)OCC [IPE, all-cis eicosa-5,8,11,14,17-pentaenoic acid ethyl ester]
Mono-unsaturated, proportion to total fatty acids, Mean placebo-adjusted percent change from baseline ([1]; RBCs, IPE 2 g/day vs placebo, P 0.0435): −3.1%
Saturated, proportion to total fatty acids, Mean placebo-adjusted percent change from baseline ([1]; RBCs, IPE 2 g/day vs placebo, P 0.3278): 1.1%
Mono-unsaturated, proportion to total fatty acids, Mean placebo-adjusted percent change from baseline ([1]; RBCs, IPE 4 g/day vs placebo, P 0.0154): −3.9%
Saturated, proportion to total fatty acids, Mean placebo-adjusted percent change from baseline ([1]; RBCs, IPE 4 g/day vs placebo, P 0.1145): 1.9%
Total omega-6, proportion to total fatty acids, Mean placebo-adjusted percent change from baseline ([1]; RBCs, IPE 4 g/day vs placebo, P <0.0001): −17.3%
AA Mean placebo-adjusted percent change from baseline ([1]; red blood cell, IPE 2 g/day vs placebo, week 12, P 0.0008): −8.0%
Linoleic Mean placebo-adjusted percent change from baseline ([1]; red blood cell, IPE 2 g/day vs placebo, week 12, P 0.1278): −4.7%
Oleic Mean placebo-adjusted percent change from baseline ([1]; red blood cell, IPE 2 g/day vs placebo, week 12, P 0.3736): −2.1%
DHA Mean placebo-adjusted percent change from baseline ([1]; red blood cell, IPE 2 g/day vs placebo, week 12, P 0.5859): −1.8%
Stearic Mean placebo-adjusted percent change from baseline ([1]; red blood cell, IPE 2 g/day vs placebo, week 12, P 0.5886): 1.1%
Palmitic Mean placebo-adjusted percent change from baseline ([1]; red blood cell, IPE 2 g/day vs placebo, week 12, P 0.9465): −0.1%
DPAn-3 Mean placebo-adjusted percent change from baseline ([1]; red blood cell, IPE 2 g/day vs placebo, week 12, P <0.0001): 86.4%
DHA Mean placebo-adjusted percent change from baseline ([1]; red blood cell, IPE 4 g/day vs placebo, week 12, P 0.1216): −5.2%
Oleic Mean placebo-adjusted percent change from baseline ([1]; red blood cell, IPE 4 g/day vs placebo, week 12, P 0.1325): −3.7%
Palmitic Mean placebo-adjusted percent change from baseline ([1]; red blood cell, IPE 4 g/day vs placebo, week 12, P 0.7427): −0.7%
Stearic Mean placebo-adjusted percent change from baseline ([1]; red blood cell, IPE 4 g/day vs placebo, week 12, P 0.7565): −0.7%
DPAn-3 Mean placebo-adjusted percent change from baseline [1, 3]: 105.6%
Linoleic Mean placebo-adjusted percent change from baseline [1, 3]: −13.0%
Unesterified EPA in plasma, CL/F ([2]; Group 1: IPE 2 g/d 1 × 1000 mg BID): 364,513 mL/hr
Unesterified EPA in plasma, CL/F ([2]; Group 2: IPE 4 g/d 2 × 1000 mg BID): 234,329 mL/hr
Unesterified EPA in plasma, CL/F ([2]; Group 3: IPE 2 g/d 2 × 1000 mg QD): 241,855 mL/hr
Unesterified EPA in plasma, CL/F ([2]; Group 4: IPE 2 g/d 2 × 500 mg BID): 326,622 mL/hr
mean plasma CL/F of unesterified eicosapentaenoic acid ([2]; about 1 g orally twice per day, human): about 364,513+/−214,003 mL/h
mean plasma AUC0-24h of unesterified eicosapentaenoic acid [2, 4]: about 18.4+/−4.6 μg·h/mL
mean plasma CL/F of unesterified eicosapentaenoic acid [2, 4]: about 234,329+/−81,639 mL/h
mean plasma Calm of unesterified eicosapentaenoic acid [2, 4]: about 1.06+/−0.56 μg/mL
mean plasma Cmax of unesterified eicosapentaenoic acid [2, 4]: about 1.4+/−0.41 μg/mL
mean plasma T1/2 of unesterified eicosapentaenoic acid [2, 4]: about 97.2+/−36.5 hours
median plasma Tmax of unesterified eicosapentaenoic acid [2, 4]: about 5 hours
